Measurements published in patent US12489120B2, “Redox flow battery” (ELECTROCHEM, S.L., priority 2019, dated 2025).
Read-outs that look alike come from different tables or passages of the source. Blank lines part the entries; values can stand above or below the molecule they belong to.

Assays:
[1] = cited from earlier work
[2] = Diffusion coefficients of ferric complexes from voltammetry; assay type: physicochemical; conditions: pH 9, borate buffer, this work
Protocol: The experiments also permit calculation of the diffusion coefficients (five solutions in the concentration range between 0.3 and 0.8 mM) (Table 3). Literature values for the Fe^3+ diffusion coefficient range from 3.3-6.5×10^−6 cm^2/s in acidic media to 8.6×10^−6 cm^2/s complexed as K3Fe(CN)6 in strongly basic media.

[3] = Cyclic voltammetry of Fe-EDDHA complexes in unbuffered 0.1 M NaClO4
Protocol: In order to minimize undesired ligand exchange reactions and solely observe the effect of pH on the redox properties, 0.1 M NaClO4 was chosen as electrolyte for the first set of experiments.
(§1) A Pt rod served as counter electrode, potentials refer to a (Ag/AgCl, 1 M NaCl) reference electrode. For each CV experiment at the mercury electrode, nine single measurements were recorded and averaged in order to minimize errors originating from drop size fluctuations. Copper electrodes were precleaned with 6 M HNO3 before use and equilibrated in electrolyte solution by running repetitive cycles. The planar glassy carbon electrode (Metrohm, 5 mm diameter) was polished on a polishing micro cloth (Buehler) with 0.05 μM alumina (Buehler) to a mirror like finish between the measurement series.

[4] = Cyclic voltammetry in borate buffer at Hg/Cu/GC electrodes; conditions: for E1/2 / ipa/ipc / jpc (peak current density) / ΔEp: 0.5 mM, 50 mM borate buffer pH 9, 0.1M NaClO4
Protocol: as §1
To avoid disturbing influences of local changes in pH within the diffusion layer of the electrodes, cyclic voltammetry with use of buffered solutions was performed.
A 100 mM NaClO4 background supporting electrolyte was used to maintain diffusion limited conditions and high solution conductivity. 50 mM boric acid was added to the NaClO4 supporting electrolyte and adjusted with NaOH to the desired pH value.

[5] = Molar absorptivity at 480 nm in borate buffer pH 9; assay type: physicochemical; conditions: borate buffer pH 9, five repetitions; in M-1·cm-1 (unit assumed)
Protocol: The molar absorptivity was determined in borate buffer solutions at pH 9 (five repetitions). To define the exact complex concentration an understoichiometric amount of ferric iron was used and the excess of free ligand was tolerated, as the ligand is not electroactive.

[6] = literature (Yunta et al. 2003); in M-1·cm-1 (unit assumed); cited from earlier work
[7] = 0.5 mM, unbuffered 0.1M NaClO4, pH 9, Hg electrode
[8] = 0.5 mM, unbuffered 0.1M NaClO4, pH 9, Hg electrode, vs Ag/AgCl 1 M NaCl

SMILES: [Fe+3] [Fe^3+]
Diffusion coefficient, literature values ([1]; acidic media): 3.3-6.5 ×10^−6 cm^2/s
Diffusion coefficient Do ([1]; pH 0-1, source a (literature)): 3.3-6.5 10^−6 cm^2/s

Diffusion coefficient Do [2]: 5.78 10^−6 cm^2/s
ipa [3, 7]: 255 nA
ipa/ipc [3, 7]: 0.93
ipc [3, 7]: −275 nA
ΔEP [3, 7]: 72 mV
E1/2 [3, 8]: −621 mV
Epa [3, 8]: −585 mV
Epc [3, 8]: −657 mV
pH range in which the voltammograms were independent on pH ([3]; unbuffered 0.1 M NaClO4): 6-9
pH above which the complex hydrolyses ([3]; without buffer): > 9
E1/2 ([4]; Cu electrode): −619 mV
ipa/ipc ([4]; Cu electrode): 1.06
jpc (peak current density) ([4]; Cu electrode): 520 nA/mm^2
ΔEp ([4]; Cu electrode): 132 mV
E1/2 ([4]; GC electrode): −616 mV
ipa/ipc ([4]; GC electrode): 0.94 1
jpc (peak current density) ([4]; GC electrode): 817 nA/mm^2
ΔEp ([4]; GC electrode): 67 mV
E1/2 ([4]; Hg electrode): −615 mV
ipa/ipc ([4]; Hg electrode): 0.93 1
jpc (peak current density) ([4]; Hg electrode): 1167 nA/mm^2
ΔEp ([4]; Hg electrode): 64 mV
slope of E1/2 vs pH ([4]; borate buffered solution, below pH 8 (racemic) / below pH 9 (meso)): −38 mV/pH
redox potential ([4]; pH 9, vs Ag/AgCl 1 M NaCl reference electrode): −615 mV
Molar absorptivity (ε480 nm), this work [5]: 4546 ± 120
SMILES: O=C([O-])C(NCCNC(C(=O)[O-])c1ccccc1[O-])c1ccccc1[O-].[Fe+3] (stereo not shown) [Fe-mesoEDDHA]
Molar absorptivity (ε480 nm), lit. [6]: 4574 ± 53
